For orientation: solubility means how much of the substance goes into solution per volume.

Here are results for three compounds from patent US6402037B1, “Two-photon upconverting dyes and applications” (The Research Foundation of State University of New York, priority 1995, dated 2002).

Data set [1] in a line: Solubility.
Data set [2] can be described thus: Decomposition temperature (Td) by DSC thermogram. The data set is classed as physicochemical. The conditions noted are these: DSC under nitrogen. The method, then: Decomposition temperature (“Td”) of each dye was measured by differential scanning calorimetry (“DSC”) thermogram using a Shimadzu DSC-50GPC under nitrogen. Elemental: analysis were performed by Atlantic Microlab, Inc., P.O. Box 2288, Norcross, Ga. 30019. Proton NMR spectra, TV/visible absorption spectra, and UV/visible emission spectra were recorded using a Varian Gemini-300 300 MHz spectrometer, a Shimazdu UV-3101 PC spectrophotometer, and a Shimazdu RF5000U spectrofluorophotometer, respectively: TV/visible absorption spectra of dyes prepared in these Examples in DMF, are provided in FIG. 3.
In general terms: DSC measures the heat that a sample takes up or gives off during a temperature scan.

A short description of data set [3]: Optical characterization of the dye-doped composite glasses. It counts as physicochemical. The method, then: Emission spectra were collected on a Shimadzu RF-5000U Spectrofluorophotometer (90° geometry) having a resolution of ±2 nm. For solution state measurements, a fluorometric quartz cuvette was used. For the composite glass, the emission was obtained from the surface of the glass (90° geometry) due to significant primary absorption. […]

The nature of data set [4]: Optical characterization of the solution state (ethanol). To be noted: for fluorescence quantum yield: vs Rhodamine-6G.
Procedure: Absorption spectra were obtained using a Shimadzu UV-Vis 260 spectrophotometer with a resolution of ±1 nm. The spectra of solution state were obtained using quartz cuvettes (1 cm path length) throughout.
In addition, the quantum yield was measured from the fluorescence data.
Data set [5] can be described thus: Two-photon pumped cavity lasing of dye-doped matrices (1.06 μm pump). The method, then:
Two-photon pumped cavity lasing experiments were conducted using a Q-switched Nd-YAG pulsed laser source having a wavelength of 1.06 μm, a pulsewidth of about 10 ns, a spectral width of about 1 cm^−1, an angular divergence of about 1.3 mrad, and a variable repetition rate of 1-10 Hz. A 1 cm-long quartz cuvette filled with dye1 solution in cyclopentanone (do≈8×10^−2 to 4×10^−2M) and a 7 mm-long, dye1 -doped poly(HEMA) rod (do,≈8×10^−3 M), prepared in accordance with Example 12, were used separately for two-photon pumped (“TPP”) lasing observation. The 1.06 μm-pump laser beam was focused on the center of the cuvette or sample rod, and a strong orange-red fluorescence emission was observed when the infrared pump intensity reached several MW/cm^2. Once the pump intensity further increased to a certain threshold level, simultaneous forward and backward highly directional superradiation could be observed from the solution or rod samples. To achieve cavity lasing, two parallel plane dielectrc-coating mirrors were employed to form a cavity. The pump beam, focused through a f-10 cm lens, was coupled into the cavity by normal incidence. The reflectivity was r=10% at 1.06 μm and r=99% at 600 nm for the front mirror (input coupler) and r=10% at 1.06 μm and r=50% at 600 nm for the rear mirror (output coupler). The total cavity length was 7˜8 cm, and the cuvette or sample rod was located at the center of the cavity. […] FIGS. 11A-11C show the emission spectra of the same 7 mm-long, dye1 -doped rod sample under the following different excitation conditions: 532 nm one-photon excited fluorescence emission (FIG. 11A), 1.06 μm two-photon excited fluorescence emission (FIG. 11B), and 1.06 μm pumped cavity lasing (FIG. 11C). Each spectrum was obtained using a grating -spectrograph in conjunction with an optical multi-channel analyzer (OMA-III) system. The difference between FIGS. 11A and 11B can be explained by a volume reabsorption effect of the emission. To obtain these two spectra, the excitation beam was incident on the rod end at a +45° angle, and the fluorescence was measured at a −45° angle. In the case of FIG. 11A, the emission was mainly from a shallow surface layer of the sample because of the very short penetration depth of the 532 nm pump radiation, and therefore, the reabsorption effect within the sample can be neglected. However, for the case of FIG. 11B, the incident infrared beam could pass through the whole rod length without obvious depletion, and, consequently, collected fluorescence signals of different spectral components were propagated within the sample for a considerable distance. […] Cavity lasing occurred at the central region of the two-photon absorption (“TPA”) induced fluorescence band, but the lasing bandwidth (˜8 nm) was much narrower than the ordinary one-photon excited fluorescence band width (˜60 nm) due to the lasing threshold requirement. In addition, a red-shift of the central lasing wavelength was observed as the pump energy increased. This shift may be caused by the local temperature change of the sample rod.
Compared to the smooth temporal profile of the 10 ns pump pulse, the lasing pulses manifested much shorter rise- and fall-times, i.e. ≦1.5 ns limited by the resolution of the detecting system. […]
The lasing output/pump input characteristic curve is given in FIG. 13 for the rod cavity lasing. […] However, at this pump level the measured one-pass two-photon absorption in the 7 mm-long rod was only about 23%. […]

Data set [6] can be described thus: TPA induced fluorescence and optical limiting in dye1-doped epoxy. It counts as physicochemical. From the text:
Dye1, prepared in accordance with Example 6, was dispersed in an optical quality epoxy compound, EPO-TEX301 (Epoxy Technology, Inc., Billerica, Mass.) by dissolving the dye powder in the liquid Part A and Part B of the epoxy. Undoped and dye1-doped epoxies were cast by blade casting techniques. Film thickness was the same (0.3 mm) for both films, and the dopant concentration for the doped film was do=0.003 M.
A 2 cm-long, dye1-doped epoxy (EPO-TEX301) rod with a concentration of do=0.004M was used for TPA induced fluorescence and optical limiting measurements. An incident near infrared laser beam, having a wavelength of 1.06 μm, a pulsewidth of about 8 ns, a spectral width of about 1 cm^−1, and a repetition rate of 3 Hz, was provided by a Q-switched Nd-YAG pulsed laser source. The incident 1.06 μm radiation on the sample was a quasi-parallel laser beam of about 1 mm size with a nearly uniform transverse intensity distribution. An orange-red fluorescence emission was readily observed by the human eye in a dark room when the 1.06 μm incident beam intensity reached several MW/cm^2. […] Each data point was averaged over 10 laser pulses by using a gated integrator and boxcar averager. The solid line is the best fitted curve based on the square law that TPA processes follow.
where I(L) is the transmitted beam intensity, Io, is the incident beam intensity, L is the thickness of the sample, and β is the TPA coefficient of the sample medium. In the derivation of Equation (1), it is assumed that the linear attenuation of the medium can be neglected and the beam has a nearly uniform transverse intensity distribution within the medium. Using Equation (1), the value of β can be determined by measuring the transmitted intensity versus the incident intensity for a sample medium with a given L value. Furthermore, the TPA coefficient β (in units of cm/GW) of a given sample is determined by
Here, No is the molecular density of the dopant (in units of 1 cm^3), σ2 is the molecular TPA coefficient (or cross-section) of the same dopant (in units of cm^4/GW, do is the concentration of the dopant compound in the matrix (in units of M), and finally NA is Avogadro's number. For known β and do, the value of σ2 can be calculated from Equation (2). Another expression for molecular TPA coefficient (or cross-section), used in some reference papers, is
where hυ is the energy of an incident photon, and σ′2 has units of cm^4/photon/sec.
The measured transmitted intensity as a function of the incident intensity for the 2 cm-long, dye1-doped epoxy rod is shown in FIG. 9. Two groups of experimental data were obtained in two measurement cycles, and each data point was an average result over 10 laser pulses. In FIG. 9, the solid line is the theoretical curve predicted by Equation (1) using a best fit parameter of β=6 cm/GW, and the dashed line is similarly constructed by assuming that there is no TPA (β=0). Consequently, FIG. 9 evidences the TPA induced optical limiting behavior of dye1 at incident intensity levels of 50-250 MW/cm^2. Using a value of β=6 cm/GW and Equations (2) and (3), the values of molecular TPA cross-section of dye1 were estimated as σ2=2.5×10^−18 cm^4/GW and σ′2=4.7×10^−46 cm^4/photon/sec. These measured values of σ2 and σ2 for dye1 in EPO-TEX301 matrix are 2˜3 orders of magnitude greater than the corresponding values of Rhodamine dyes, as reported by Rapp et al., Chem. Phys. […] The damage threshold of the 2 cm-long, dye1-doped epoxy rod was measured as 250˜300 MW/cm^2.

The nature of data set [7]: Two-photon pumped cavity lasing of dye-doped matrices (1.06 μm pump). The source holds these as a separate data set.
Where [8] appears, read: EPO-TEX301 matrix, 1.06 μm, from β.
Setting [9] is: cyclopentanone solution, 0.001 M.

Marks after values point to notes of the source that are not given here.

With `CCN(CCO)c1ccc(/C=C/c2cc[n+](CCO)cc2)cc1.[I-]` [ASPI, trans-4-[p-(N-ethyl-N-hydroxyethylamino)styryl]-N-hydroxyethylpyridinium iodide], the solubility in data set [1] (ethanol, organic solvent or mixture) is 6.1 mM; in data set [1] (in PMMA) it was “insolubility”; in data set [1] (in methyl methacrylate monomer), “insolubility”. Also, the “Decomposition temperature (Td)” value in data set [2] amounted to 270 °C. Besides, the “Florescence FWHM” value in data set [3] (Composite Glass, single dye) is listed as 45 nm; in data set [4] (ethanol, same concentrations, excitation 509 nm) it was roughly 38 nm. Besides, the “Fluorescence Max.” value in data set [3] (Composite Glass, single dye) is 586 nm; in data set [4] (ethanol, ASPI 3.1×10^−3 M, Rhodamine-6G 6.5×10^−5 M, excitation 509 nm), 600 nm. Further, in data set [3] (composite glass containing both dyes), the “Florescence FWHM, ASPI emission” value is given as 41 nm. Further, the “Fluorescence Max., ASPI emission” value in data set [3] (composite glass containing both dyes, reconstructed peak) is 594 nm. The fluorescence quantum yield in data set [4] (1.8×10^−6 M, excited at 482 nm) was 6×10^−3; in data set [4] (2.6×10^−6 M, excited at 509 nm) it was 7×10^−3. Also, in data set [4] (Solution State, Table 2), the “Quantum Yield” value is 6.5 × 10^−3. Also, the “Absorbance Max.” value in data set [4] (ethanol) is reported as 483 nm. Besides, the “Stokes Shift” value in data set [4] (ethanol) was 118 nm. In addition, in data set [4] (ethanol, at 483 nm), the molar absorptivity worked out at 68000 M⁻¹ cm⁻¹.
With `CCN(CCO)c1ccc(/C=C/c2cc[n+](C)cc2)cc1.c1ccc([B-](c2ccccc2)(c2ccccc2)c2ccccc2)cc1` [dye1, trans-4-[p-(N-ethyl-N-hydroxyethylamino)styryl]-N-methylpyridinium tetraphenyborate], in data set [5] (poly(HEMA) 0.008M), the absorption bandwidth amounted to 80 nm, the linear absorption peak came out at 485 nm, the one-photon fluorescence bandwidth turned out to be 55 nm and the one-photon fluorescence peak is reported as 577 nm. Also, the “molecular TPA cross-section σ2” value in data set [5] (poly(HEMA) rod, 1.06 μm, from nonlinear absorption data) was “≈ 1.2×10^−46 cm^4-sec”. Besides, the “Decomposition temperature (Td)” value in data set [2] came to 264 °C. Also, the “strong one-photon absorption range” value in data set [6] (0.3 mm epoxy film, 0.003 M) is 350˜560 nm. The “TPA coefficient β (best fit)” value in data set [6] (2 cm EPO-TEX301 rod, 0.004M, 1.06 μm) was 6 cm/GW. The “TPA cross-section greater than values of Rhodamine dyes” value in data set [6] (EPO-TEX301 matrix) was 2˜3 orders of magnitude. Further, in data set [6] (setting [8]), the “molecular TPA cross-section σ2” value is reported as 2.5×10^−18 cm^4/GW and the “molecular TPA cross-section σ′2” value is 4.7×10^−46 cm^4/photon/sec. Moreover, in data set [7] (Vycor glass 0.0015M), the one-photon fluorescence bandwidth was determined as 60 nm and the one-photon fluorescence peak is 575 nm. In addition, in data set [7] (setting [9]), the absorption bandwidth was 100^a nm, the linear absorption peak was 480^a nm, the one-photon fluorescence bandwidth is on record as 58^a nm and the one-photon fluorescence peak is recorded as 590^a nm. In addition, in data set [7] (sol-gel glass 0.0015 M), the one-photon fluorescence bandwidth is 55 nm and the one-photon fluorescence peak worked out at 568 nm.
With `CN(C)c1ccc(/C=C/c2cc[n+](C)cc2)cc1.c1ccc([B-](c2ccccc2)(c2ccccc2)c2ccccc2)cc1` [dye2, trans-4-[p-(N,N-dimethylamino)styryl]-N-methylpyridinium tetraphenyborate], the “Decomposition temperature (Td)” value in data set [2] came to 266 °C.
